Test results: article PMC3246799 (Science (New York, N.Y.), 2011)

Target: T1, AHR2-2 (tomcod AHR2) (Microgadus tomcod, UniProt B6E9W5)
T1 sequence (B6E9W5 1-1104): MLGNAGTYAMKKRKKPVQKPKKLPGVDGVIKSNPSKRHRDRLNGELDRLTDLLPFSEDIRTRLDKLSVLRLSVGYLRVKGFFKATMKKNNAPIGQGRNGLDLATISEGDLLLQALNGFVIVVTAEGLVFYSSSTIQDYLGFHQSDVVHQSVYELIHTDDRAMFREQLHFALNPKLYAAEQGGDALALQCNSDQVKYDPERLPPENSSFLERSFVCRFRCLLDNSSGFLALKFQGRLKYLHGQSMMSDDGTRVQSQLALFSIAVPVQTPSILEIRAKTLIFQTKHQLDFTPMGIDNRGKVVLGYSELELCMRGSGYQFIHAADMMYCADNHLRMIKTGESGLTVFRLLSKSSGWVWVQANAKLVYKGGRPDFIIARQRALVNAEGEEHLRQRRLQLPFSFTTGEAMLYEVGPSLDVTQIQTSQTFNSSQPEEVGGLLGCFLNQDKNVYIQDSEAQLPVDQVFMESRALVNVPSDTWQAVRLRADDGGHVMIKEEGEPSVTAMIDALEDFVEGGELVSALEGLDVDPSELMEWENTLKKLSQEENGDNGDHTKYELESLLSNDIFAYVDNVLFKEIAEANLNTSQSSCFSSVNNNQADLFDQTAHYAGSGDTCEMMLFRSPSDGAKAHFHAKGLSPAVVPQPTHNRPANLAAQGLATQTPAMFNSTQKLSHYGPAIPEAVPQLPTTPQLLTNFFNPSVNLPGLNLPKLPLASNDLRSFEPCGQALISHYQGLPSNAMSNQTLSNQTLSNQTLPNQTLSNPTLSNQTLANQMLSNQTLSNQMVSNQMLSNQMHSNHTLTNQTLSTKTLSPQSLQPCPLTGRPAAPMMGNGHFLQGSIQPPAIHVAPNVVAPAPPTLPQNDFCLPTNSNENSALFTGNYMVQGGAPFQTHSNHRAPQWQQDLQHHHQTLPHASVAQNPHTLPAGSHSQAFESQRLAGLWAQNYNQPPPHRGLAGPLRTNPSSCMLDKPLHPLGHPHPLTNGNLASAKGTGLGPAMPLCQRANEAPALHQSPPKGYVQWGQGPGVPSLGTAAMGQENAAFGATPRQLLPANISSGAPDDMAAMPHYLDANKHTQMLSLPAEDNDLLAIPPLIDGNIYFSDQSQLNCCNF
Test: saturation binding of [3H]TCDD, velocity sedimentation on sucrose gradients
Conditions: labelled compound; 0.1 to 12 nM [3H]TCDD; apparent equilibrium constant

Compound: Clc1cc2c(cc1Cl)Oc1cc(Cl)c(Cl)cc1O2 [TCDD, 2,3,7,8-tetrachlorodibenzo-p-dioxin]
- Kd: 1.27 nM
